Assay results published in ChEMBL document CHEMBL3352354, “Novel FTY720-Based Compounds Stimulate Neurotrophin Expression and Phosphatase Activity in Dopaminergic Cells” (ACS Med Chem Lett, 2014).
Activity calls are given as the source filed them. No cut-off for these calls is given here.

Key:
Homo sapiens [1] = species: Homo sapiens; assay: Induction of recombinant PP2A catalytic subunit (unknown origin) activity assessed as phosphate level using threonine-phosphopeptide at 5 uM
Homo sapiens [2] = species: Homo sapiens; assay: Induction of recombinant PP2A catalytic subunit (unknown origin) activity assessed as phosphate level at 5 uM relative to control
MN9D [3] = assay: Neuroprotective activity in mouse MN9D cells assessed as blocking of TNF-alpha associated toxicity at 0.16 uM after 72 hrs by Trypan blue staining; assay type: functional, cell-based
[4] = Neuroprotective activity in mouse MN9D cells assessed as cell division at 0.04 to 0.16 uM after 72 hrs by DAPI staining (reference value: 100 +/- 4.15%); assay type: functional
[5] = Cytotoxicity against mouse MN9D cells assessed as metabolic activity at > 1.5 uM after 72 hrs by MTS assay; assay type: ADME, cell-based
[6] = Neuroprotective activity in mouse MN9D cells assessed as stimulation of BDNF expression at 0.16 uM after 24 hrs; assay type: functional, cell-based
MN9D [7] = assay: Induction of PP2A catalytic subunit activity in mouse MN9D cells assessed as phosphate level at 5 uM; assay type: cell-based
PC-12 = assay: Induction of PP2A catalytic subunit activity in rat PC12 cells assessed as phosphate level at 5 uM measured 30 to 120 mins; assay type: cell-based

| Compound | Activity (Homo sapiens [1]) | fold change (FC) (Homo sapiens [2]) | inhibition (MN9D [3]) | Activity [4] [%] | Activity [5] | Activity [6] | Activity (MN9D [7]) | Activity (PC-12) |
| --- | --- | --- | --- | --- | --- | --- | --- | --- |
| CCCCCCCCc1ccc(CCC(CO)(CO)NC(C)=O)cc1 |  | 8 | Active | 91.44 | Toxic | Active | Active |  |
| CCCCCCCCc1ccc(CCC(N)(CO)CO)cc1 [FINGOLIMOD] | Active | 4 | Active | 98 | Toxic | Active | Active | Active |
| CCCCCCCCc1ccc(CCC(CO)(CO)NC(=O)CC[P+](c2ccccc2)(c2ccccc2)c2ccccc2)cc1.[Br-] |  | 4 | Active | 101.37 | Toxic | Active | Active |  |

Now from value to compound, other results behind:

| Activity (Homo sapiens [1]) | fold change (FC) (Homo sapiens [2]) | Compound | inhibition (MN9D [3]) | Activity [4] [%] | Activity [5] | Activity [6] | Activity (MN9D [7]) | Activity (PC-12) |
| --- | --- | --- | --- | --- | --- | --- | --- | --- |
| Active | 8 | CCCCCCCCCCCCC/C=C/[C@H](O)[C@@H](CO)NC(C)=O |  |  |  |  |  |  |
| inactive |  | CCCCCCCCCCCCC/C=C/[C@H](O)[C@@H](CO)NC(=O)CCCCCCCCC |  |  |  |  |  |  |
| Active |  | CCCCCCCCCCCCC/C=C/[C@H](O)[C@@H](CO)NC(=O)CCCCC |  |  |  |  |  |  |
